# Test results: article PMC10343355, “Finding the Right Solvent: A Novel Screening Protocol for Identifying Environmentally Friendly and Cost-Effective Options for Benzenesulfonamide” (Molecules, 2023)
# Assay: Shake-flask solubility of BSA in neat solvents and aqueous binary mixtures, spectrophotometric determination at 264 nm
# Format: physicochemical
# Settings: for log(x1)exp: mole fraction solubility
# Procedure: In order to determine the solubility of BSA in the studied solvents, excess amounts of it were added to test tubes pre-filled with a particular solvent or a binary mixture of this solvent and water in different molar proportions. Saturated solutions prepared in this manner were placed in an ES-20/60 Orbital Shaker Incubator from Biosan (Riga, Latvia) and incubated for 24 h at different temperatures. Four temperatures were used in the range from 25 °C to 40 °C with 5 °C intervals. The temperature in the incubator was adjusted with 0.1-degree accuracy with a 0.5-degree variance in a 24 h cycle. Simultaneously, the samples were mixed at 60 rev/min. In the next stage, the filtration of the samples took place, utilizing syringes equipped with PTFE filters with 0.22 µm pore size. Since the temperature difference between the measured solutions and used instruments can possibly lead to precipitation, all of the used test tubes, pipette tips, syringes, and filters were initially heated. This was carried out by placing them in the same incubator as the samples and heating them at exactly the same temperature prior to the handling of the samples. This was particularly important in the case of elevated temperatures, as the difference between, e.g., 40 °C and room temperature is quite extensive. Then, small amounts of the obtained filtrate were diluted in different test tubes containing methanol and measured spectrophotometrically. In order to determine the mole fractions of BSA in the samples, their density was also measured by weighing a 1 mL volume of each of the solutions, taken by using an Eppendorf Reference 2 pipette (Hamburg, Germany), in 10 mL volumetric flasks. The systematic error of the pipette was 6 μL. The precision of the RADWAG (Radom, Poland) AS 110.R2 PLUS analytical balance that was used in this study was 0.1 mg. The A360 spectrophotometer from AOE Instruments (Shanghai, China) was used for solubility determination. The spectra were recorded in the 190 nm to 400 nm wavelength range with a 1 nm resolution. Methanol was used for both the dilution of the samples and the initial calibration of the spectrophotometer. The analytical wavelength was determined to be 264 nm, and the absorbance of the samples at this wavelength was used for the determination of the BSA concentration in the samples and the subsequent calculation of its mole fractions. Three separate measurements were used, and the resulting values were averaged. The calibration curve for BSA was generated by preparing successive dilutions of an initial stock solution and performing spectrophotometric measurements of the resulting solutions with decreasing concentrations. The molar concentrations of measured solutions were 3.19 × 10^−3, 2.84 × 10^−3, 2.46 × 10^−3, 2.13 × 10^−3, 1.88 × 10^−3, 1.60 × 10^−3, 1.26 × 10^−3, 9.53 × 10^−4, 5.70 × 10^−4, and 4.80 × 10^−4 M). The relationship between the absorbance values at 264 nm and the solution concentration was described by the linear equation A = 470.86 × C + 0.0093 (A—absorbance; C—molar concentration), with a determination coefficient R^2 equal 0.9996, denoting high linearity.
compound,measurement,setting,value
"NS(=O)(=O)c1ccccc1 [BSA, Benzenesulfonamide]","solubility, X^exp × 10^3","4FM+water, x2*(4FM)=0.2, 298.15 K",23.42 ± 0.86 mole fraction × 10^3
same,"solubility, X^exp × 10^3","4FM+water, x2*(4FM)=0.2, 303.15 K",32.61 ± 1.65 mole fraction × 10^3
same,"solubility, X^exp × 10^3","4FM+water, x2*(4FM)=0.2, 308.15 K",48.14 ± 1.59 mole fraction × 10^3
same,"solubility, X^exp × 10^3","4FM+water, x2*(4FM)=0.2, 313.15 K",69.19 ± 2.56 mole fraction × 10^3
same,"solubility, X^exp × 10^3","4FM+water, x2*(4FM)=0.4, 298.15 K",45.67 ± 0.33 mole fraction × 10^3
same,"solubility, X^exp × 10^3","4FM+water, x2*(4FM)=0.4, 303.15 K",68.93 ± 1.12 mole fraction × 10^3
same,"solubility, X^exp × 10^3","4FM+water, x2*(4FM)=0.4, 308.15 K",102.78 ± 3.56 mole fraction × 10^3
same,"solubility, X^exp × 10^3","4FM+water, x2*(4FM)=0.4, 313.15 K",142.57 ± 6.01 mole fraction × 10^3
same,"solubility, X^exp × 10^3","4FM+water, x2*(4FM)=0.6, 298.15 K",61.48 ± 0.85 mole fraction × 10^3
same,"solubility, X^exp × 10^3","4FM+water, x2*(4FM)=0.6, 303.15 K",101.16 ± 0.91 mole fraction × 10^3
same,"solubility, X^exp × 10^3","4FM+water, x2*(4FM)=0.6, 308.15 K",146.31 ± 6.19 mole fraction × 10^3
same,"solubility, X^exp × 10^3","4FM+water, x2*(4FM)=0.6, 313.15 K",196.38 ± 7.85 mole fraction × 10^3
same,"solubility, X^exp × 10^3","4FM+water, x2*(4FM)=0.8, 298.15 K",68.53 ± 0.63 mole fraction × 10^3
same,"solubility, X^exp × 10^3","4FM+water, x2*(4FM)=0.8, 303.15 K",118.09 ± 6.45 mole fraction × 10^3
same,"solubility, X^exp × 10^3","4FM+water, x2*(4FM)=0.8, 308.15 K",178.71 ± 6.67 mole fraction × 10^3
same,"solubility, X^exp × 10^3","4FM+water, x2*(4FM)=0.8, 313.15 K",242.26 ± 2.09 mole fraction × 10^3
same,"solubility, X^exp × 10^3","DMF+water, x2*(DMF)=0.2, 298.15 K",42.18 ± 0.83 mole fraction × 10^3
same,"solubility, X^exp × 10^3","DMF+water, x2*(DMF)=0.2, 303.15 K",46.69 ± 1.75 mole fraction × 10^3
same,"solubility, X^exp × 10^3","DMF+water, x2*(DMF)=0.2, 308.15 K",54.78 ± 1.76 mole fraction × 10^3
same,"solubility, X^exp × 10^3","DMF+water, x2*(DMF)=0.2, 313.15 K",63.21 ± 1.40 mole fraction × 10^3
same,"solubility, X^exp × 10^3","DMF+water, x2*(DMF)=0.4, 298.15 K",161.16 ± 3.97 mole fraction × 10^3
same,"solubility, X^exp × 10^3","DMF+water, x2*(DMF)=0.4, 303.15 K",179.12 ± 10.87 mole fraction × 10^3
same,"solubility, X^exp × 10^3","DMF+water, x2*(DMF)=0.4, 308.15 K",202.07 ± 2.93 mole fraction × 10^3
same,"solubility, X^exp × 10^3","DMF+water, x2*(DMF)=0.4, 313.15 K",233.72 ± 14.10 mole fraction × 10^3
same,"solubility, X^exp × 10^3","DMF+water, x2*(DMF)=0.6, 298.15 K",231.63 ± 6.50 mole fraction × 10^3
same,"solubility, X^exp × 10^3","DMF+water, x2*(DMF)=0.6, 303.15 K",253.07 ± 9.75 mole fraction × 10^3
same,"solubility, X^exp × 10^3","DMF+water, x2*(DMF)=0.6, 308.15 K",281.23 ± 1.05 mole fraction × 10^3
same,"solubility, X^exp × 10^3","DMF+water, x2*(DMF)=0.6, 313.15 K",319.28 ± 11.90 mole fraction × 10^3
same,"solubility, X^exp × 10^3","DMF+water, x2*(DMF)=0.8, 298.15 K",268.17 ± 4.27 mole fraction × 10^3
same,"solubility, X^exp × 10^3","DMF+water, x2*(DMF)=0.8, 303.15 K",286.69 ± 8.71 mole fraction × 10^3
same,"solubility, X^exp × 10^3","DMF+water, x2*(DMF)=0.8, 308.15 K",317.90 ± 8.49 mole fraction × 10^3
same,"solubility, X^exp × 10^3","DMF+water, x2*(DMF)=0.8, 313.15 K",356.68 ± 8.53 mole fraction × 10^3
same,"solubility, X^exp × 10^3","DMSO+water, x2*(DMSO)=0.2, 298.15 K",35.84 ± 1.56 mole fraction × 10^3
same,"solubility, X^exp × 10^3","DMSO+water, x2*(DMSO)=0.2, 303.15 K",40.39 ± 0.41 mole fraction × 10^3
same,"solubility, X^exp × 10^3","DMSO+water, x2*(DMSO)=0.2, 308.15 K",45.37 ± 0.84 mole fraction × 10^3
same,"solubility, X^exp × 10^3","DMSO+water, x2*(DMSO)=0.2, 313.15 K",50.66 ± 1.03 mole fraction × 10^3
same,"solubility, X^exp × 10^3","DMSO+water, x2*(DMSO)=0.4, 298.15 K",136.28 ± 5.21 mole fraction × 10^3
same,"solubility, X^exp × 10^3","DMSO+water, x2*(DMSO)=0.4, 303.15 K",153.75 ± 0.89 mole fraction × 10^3
same,"solubility, X^exp × 10^3","DMSO+water, x2*(DMSO)=0.4, 308.15 K",175.06 ± 5.16 mole fraction × 10^3
same,"solubility, X^exp × 10^3","DMSO+water, x2*(DMSO)=0.4, 313.15 K",198.55 ± 12.9 mole fraction × 10^3
same,"solubility, X^exp × 10^3","DMSO+water, x2*(DMSO)=0.6, 298.15 K",257.01 ± 5.42 mole fraction × 10^3
same,"solubility, X^exp × 10^3","DMSO+water, x2*(DMSO)=0.6, 303.15 K",279.84 ± 7.39 mole fraction × 10^3
same,"solubility, X^exp × 10^3","DMSO+water, x2*(DMSO)=0.6, 308.15 K",307.25 ± 8.78 mole fraction × 10^3
same,"solubility, X^exp × 10^3","DMSO+water, x2*(DMSO)=0.6, 313.15 K",335.53 ± 2.01 mole fraction × 10^3
same,"solubility, X^exp × 10^3","DMSO+water, x2*(DMSO)=0.8, 298.15 K",301.83 ± 4.01 mole fraction × 10^3
same,"solubility, X^exp × 10^3","DMSO+water, x2*(DMSO)=0.8, 303.15 K",324.42 ± 10.85 mole fraction × 10^3
same,"solubility, X^exp × 10^3","DMSO+water, x2*(DMSO)=0.8, 308.15 K",352.69 ± 7.04 mole fraction × 10^3
same,"solubility, X^exp × 10^3","DMSO+water, x2*(DMSO)=0.8, 313.15 K",381.96 ± 8.16 mole fraction × 10^3
same,"solubility, X^exp × 10^3","DMSO+water, x2*=0.0 (neat water), 298.15 K",0.56 ± 0.03 mole fraction × 10^3
same,"solubility, X^exp × 10^3","DMSO+water, x2*=0.0 (neat water), 303.15 K",0.83 ± 0.01 mole fraction × 10^3
same,"solubility, X^exp × 10^3","DMSO+water, x2*=0.0 (neat water), 308.15 K",1.17 ± 0.04 mole fraction × 10^3
same,"solubility, X^exp × 10^3","DMSO+water, x2*=0.0 (neat water), 313.15 K",1.53 ± 0.03 mole fraction × 10^3
same,log(x1)exp,"solvent 4-Formylmorpholine, T 25.00 °C",-1.16
same,log(x1)exp,"solvent 4-Formylmorpholine, T 30.00 °C",-0.88
same,log(x1)exp,"solvent 4-Formylmorpholine, T 35.00 °C",-0.70
same,log(x1)exp,"solvent 4-Formylmorpholine, T 40.00 °C",-0.55
same,log(x1)exp,"solvent DMF, T 25.00 °C",-0.54
same,log(x1)exp,"solvent DMF, T 30.00 °C",-0.51
same,log(x1)exp,"solvent DMF, T 35.00 °C",-0.47
same,log(x1)exp,"solvent DMF, T 40.00 °C",-0.42
same,log(x1)exp,"solvent DMSO, T 25.00 °C",-0.50
same,log(x1)exp,"solvent DMSO, T 30.00 °C",-0.47
same,log(x1)exp,"solvent DMSO, T 35.00 °C",-0.43
same,log(x1)exp,"solvent DMSO, T 40.00 °C",-0.40
same,log(x1)exp,"solvent water, T 25.00 °C",-3.25
same,log(x1)exp,"solvent water, T 30.00 °C",-3.08
same,log(x1)exp,"solvent water, T 35.00 °C",-2.93
same,log(x1)exp,"solvent water, T 40.00 °C",-2.82
same,"solubility, X^exp × 10^3","x2*=1.0 (neat 4FM), 298.15 K",69.45 ± 0.49 mole fraction × 10^3
same,"solubility, X^exp × 10^3","x2*=1.0 (neat 4FM), 303.15 K",132.21 ± 4.61 mole fraction × 10^3
same,"solubility, X^exp × 10^3","x2*=1.0 (neat 4FM), 308.15 K",200.82 ± 7.43 mole fraction × 10^3
same,"solubility, X^exp × 10^3","x2*=1.0 (neat 4FM), 313.15 K",279.66 ± 2.42 mole fraction × 10^3
same,"solubility, X^exp × 10^3","x2*=1.0 (neat DMF), 298.15 K",288.65 ± 1.99 mole fraction × 10^3
same,"solubility, X^exp × 10^3","x2*=1.0 (neat DMF), 303.15 K",308.50 ± 5.81 mole fraction × 10^3
same,"solubility, X^exp × 10^3","x2*=1.0 (neat DMF), 308.15 K",336.89 ± 13.52 mole fraction × 10^3
same,"solubility, X^exp × 10^3","x2*=1.0 (neat DMF), 313.15 K",378.60 ± 8.94 mole fraction × 10^3
same,"solubility, X^exp × 10^3","x2*=1.0 (neat DMSO), 298.15 K",319.77 ± 2.83 mole fraction × 10^3
same,"solubility, X^exp × 10^3","x2*=1.0 (neat DMSO), 303.15 K",342.67 ± 5.19 mole fraction × 10^3
same,"solubility, X^exp × 10^3","x2*=1.0 (neat DMSO), 308.15 K",369.38 ± 9.57 mole fraction × 10^3
same,"solubility, X^exp × 10^3","x2*=1.0 (neat DMSO), 313.15 K",402.31 ± 9.04 mole fraction × 10^3
